Patent US20130165641A1, “6,11-BRIDGED BIARYL MACROLIDES” (Enanta Pharmaceuticals, Inc., priority 2007, published 2013)
In brackets after ≈: the same amount, converted by molar mass.

System: MRSA
Assay: MIC by micro-dilution method, MRSA isolates
Assay type: cell-based, Staphylococcus aureus
Conditions: compounds of Formula XVI; for MIC MRSA 7662: MRSA isolate 7662; for MIC MRSA 33591: MRSA isolate 33591
Protocol: Susceptibility tests can be used to quantitatively measure the in vitro activity of an antimicrobial agent against a given bacterial isolate. Compounds are tested for in vitro antibacterial activity by a micro-dilution method. Minimal Inhibitory Concentration (MIC) is determined in 96 well microtiter plates utilizing the appropriate broth medium for the observed bacterial isolates. […] The diluted compounds (2 μl/well) are then transferred into sterile, uninoculated medium (0.2 mL) by use of a 96 fixed tip-pipetting station. The inoculum for each bacterial strain is standardized to approximately 5×10^5 CFU/mL by optical comparison to a 0.5 McFarland turbidity standard. The plates are inoculated with 10 μl/well of adjusted bacterial inoculum. The 96 well plates are covered and incubated at 35+/−2° C. for 24 hours in ambient air environment. Following incubation, plate wells are visually examined by Optical Density measurement for the presence of growth (turbidity). The lowest concentration of an antimicrobial agent at which no visible growth occurs is defined as the MIC.
All in vitro testing follows the guidelines described in the Approved Standards M7-A7 protocol, published by the Clinical Laboratory Standards Institute (CLSI).

CC[C@H]1OC(=O)[C@@](C)(F)C(=O)[C@H](C)[C@@H](O[C@@H]2O[C@H](C)C[C@H](N(C)C)[C@H]2O)[C@@]2(C)C[C@@H](C)C(=NC(C)=O)[C@H](C)[C@@H](OC/C(=N\OCc3ccc(-c4nsc(N)n4)cn3)CO2)[C@]1(C)O [Example 107]
MIC MRSA 7662: 8 µg/mL (≈ 8.97 µM)
MIC MRSA 33591: 16 µg/mL (≈ 17.9 µM)

CC[C@H]1OC(=O)[C@H](C)C(=O)[C@H](C)[C@@H](O[C@@H]2O[C@H](C)C[C@H](N(C)C)[C@H]2O)[C@@]2(C)C[C@@H](C)C(=NC(C)=O)[C@H](C)[C@@H](OC/C(=N\OCc3ccc(-c4nc(N)cs4)cn3)CO2)[C@]1(C)O [Example 108]
MIC MRSA 7662: 8 µg/mL (≈ 9.16 µM)
MIC MRSA 33591: 8 µg/mL (≈ 9.16 µM)

CCC(=O)N=C1[C@H](C)C[C@@]2(C)OC/C(=N/OCc3ccc(-c4nsc(N)n4)cn3)CO[C@H]([C@H]1C)[C@](C)(O)[C@@H](CC)OC(=O)[C@@](C)(F)C(=O)[C@H](C)[C@H]2O[C@@H]1O[C@H](C)C[C@H](N(C)C)[C@H]1O [Example 123]
MIC MRSA 7662: 4 µg/mL (≈ 4.41 µM)
MIC MRSA 33591: 4 µg/mL (≈ 4.41 µM)

CC[C@H]1OC(=O)[C@@](C)(F)C(=O)[C@H](C)[C@@H](O[C@@H]2O[C@H](C)C[C@H](N(C)C)[C@H]2O)[C@@]2(C)C[C@@H](C)C(=NC(=O)C(C)C)[C@H](C)[C@@H](OC/C(=N\OCc3csc(-c4cccc(N)n4)n3)CO2)[C@]1(C)O [Example 137]
MIC MRSA 7662: 1.00 µg/mL (≈ 1.09 µM)
MIC MRSA 33591: 2.00 µg/mL (≈ 2.18 µM)

CCC1OC(=O)C(C)(F)C(=O)C(C)C(OC2OC(C)CC(N(C)C)C2O)C2(C)CC(C)C(=NC(C)=O)C(C)C(OCC(=NOCc3ccc(-c4cccc(N)n4)cn3)CO2)C1(C)O (stereo not drawn) [Example 74]
MIC MRSA 7662: 8 µg/mL (≈ 9.04 µM)
MIC MRSA 33591: 8 µg/mL (≈ 9.04 µM)

CCC(=O)N=C1C(C)CC2(C)OCC(=NOCc3ccc(-c4cccc(N)n4)cn3)COC(C1C)C(C)(O)C(CC)OC(=O)C(C)(F)C(=O)C(C)C2OC1OC(C)CC(N(C)C)C1O (stereo not drawn) [Example 75]
MIC MRSA 7662: 4 µg/mL (≈ 4.45 µM)
MIC MRSA 33591: 4 µg/mL (≈ 4.45 µM)

CCC(=O)N=C1[C@H](C)C[C@@]2(C)OC/C(=N/OCc3cnc(-c4nc(N)cs4)cn3)CO[C@H]([C@H]1C)[C@](C)(O)[C@@H](CC)OC(=O)[C@@](C)(F)C(=O)[C@H](C)[C@H]2O[C@@H]1O[C@H](C)C[C@H](N(C)C)[C@H]1O [Example 133]
MIC MRSA 7662: 2.00 µg/mL (≈ 2.21 µM)
MIC MRSA 33591: 4.00 µg/mL (≈ 4.41 µM)

CCC1OC(=O)C(C)(F)C(=O)C(C)C(OC2OC(C)CC(N(C)C)C2O)C2(C)CC(C)C(=NC(C)=O)C(C)C(OCC(=NOCc3cnc(-c4cccc(N)n4)s3)CO2)C1(C)O (stereo not drawn) [Example 97]
MIC MRSA 7662: 8 µg/mL (≈ 8.98 µM)
MIC MRSA 33591: 8 µg/mL (≈ 8.98 µM)

CCC1OC(=O)C(C)(F)C(=O)C(C)C(OC2OC(C)CC(N(C)C)C2O)C2(C)CC(C)C(=NC(=O)C(C)C)C(C)C(OCC(=NOCc3ccc(-c4cccc(N)n4)cn3)CO2)C1(C)O (stereo not drawn) [Example 80]
MIC MRSA 7662: 4 µg/mL (≈ 4.38 µM)
MIC MRSA 33591: 4 µg/mL (≈ 4.38 µM)

CC[C@H]1OC(=O)[C@@](C)(F)C(=O)[C@H](C)[C@@H](O[C@@H]2O[C@H](C)C[C@H](N(C)C)[C@H]2O)[C@@]2(C)C[C@@H](C)C(=NC(=O)C(C)C)[C@H](C)[C@@H](OC/C(=N\OCc3ncc(-c4cccc(N)n4)s3)CO2)[C@]1(C)O [Example 111]
MIC MRSA 7662: 2 µg/mL (≈ 2.18 µM)
MIC MRSA 33591: 2 µg/mL (≈ 2.18 µM)

CCC1OC(=O)C(C)C(=O)C(C)C(OC2OC(C)CC(N(C)C)C2O)C2(C)CC(C)C(=NC(C)=O)C(C)C(OCC(=NOCc3ccc(-n4ccc(N)n4)cc3F)CO2)C1(C)O (stereo not drawn) [Example 84]
MIC MRSA 7662: 8 µg/mL (≈ 9.16 µM)
MIC MRSA 33591: 8 µg/mL (≈ 9.16 µM)

CC[C@H]1OC(=O)[C@@](C)(F)C(=O)[C@H](C)[C@@H](O[C@@H]2O[C@H](C)C[C@H](N(C)C)[C@H]2O)[C@@]2(C)C[C@@H](C)C(=NC(=O)C3CC3)[C@H](C)[C@@H](OC/C(=N\OCc3ncc(-c4cccc(N)n4)s3)CO2)[C@]1(C)O [Example 112]
MIC MRSA 7662: 4 µg/mL (≈ 4.36 µM)
MIC MRSA 33591: 8 µg/mL (≈ 8.72 µM)
